Measurements: ChEMBL document CHEMBL4507274 (2021)

Experiments:
[1] = target: AP2-associated protein kinase 1 (Homo sapiens) (UniProt Q2M2I8); details: Compound concentration 100.0 nM
[2] = system: Receptor-type tyrosine-protein kinase FLT3 (Homo sapiens), P36888 [K663Q]; details: Compound concentration 100.0 nM
[3] = target: Phosphatidylinositol 4-kinase beta (Homo sapiens) (UniProt Q9UBF8); details: Compound concentration 100.0 nM
[4] = system: Mast/stem cell growth factor receptor Kit (Homo sapiens), P10721 [A829P]; details: Compound concentration 100.0 nM
[5] = target: Serine/threonine-protein kinase Nek1 (Homo sapiens) (UniProt Q96PY6); details: Compound concentration 100.0 nM
[6] = target: Serine/threonine-protein kinase NIM1 (Homo sapiens) (UniProt Q8IY84); details: Compound concentration 100.0 nM
[7] = target: LIM domain kinase 2 (Homo sapiens) (UniProt P53671); details: Compound concentration 100.0 nM
[8] = target: Ephrin type-B receptor 6 (Homo sapiens) (UniProt O15197); details: Compound concentration 100.0 nM
[9] = target: Ephrin type-B receptor 3 (Homo sapiens) (UniProt P54753); details: Compound concentration 100.0 nM
[10] = target: Cyclin-dependent kinase 19 (Homo sapiens) (UniProt Q9BWU1); details: Compound concentration 100.0 nM
[11] = target: Mu-type opioid receptor (Homo sapiens) (UniProt P35372); details: Compound concentration 10.0 uM
[12] = target: Muscarinic acetylcholine receptor M2 (Homo sapiens) (UniProt P08172); details: Compound concentration 10.0 uM
[13] = target: Tyrosine-protein kinase TXK (Homo sapiens) (UniProt P42681); details: Compound concentration 100.0 nM
[14] = system: Tyrosine-protein kinase ABL1 (Homo sapiens), P00519 [Y253F]; details: Compound concentration 100.0 nM
[15] = system: Mast/stem cell growth factor receptor Kit (Homo sapiens), P10721 [D816H]; details: Compound concentration 100.0 nM
[16] = target: Calcium/calmodulin-dependent protein kinase type 1D (Homo sapiens) (UniProt Q8IU85); details: Compound concentration 100.0 nM
[17] = target: Rho-associated protein kinase 1 (Homo sapiens) (UniProt Q13464); details: Compound concentration 100.0 nM
[18] = target: TGF-beta receptor type-1 (Homo sapiens) (UniProt P36897); details: Compound concentration 100.0 nM
[19] = system: Tyrosine-protein kinase ABL1 (Homo sapiens), P00519 [Q252H]; details: Compound concentration 100.0 nM
[20] = target: Homeodomain-interacting protein kinase 1 (Homo sapiens) (UniProt Q86Z02); details: Compound concentration 100.0 nM
[21] = target: Serine/threonine-protein kinase N1 (Homo sapiens) (UniProt Q16512); details: Compound concentration 100.0 nM
[22] = target: Epithelial discoidin domain-containing receptor 1 (Homo sapiens) (UniProt Q08345); details: Compound concentration 100.0 nM
[23] = target: Vascular endothelial growth factor receptor 2 (Homo sapiens) (UniProt P35968); details: Compound concentration 100.0 nM
[24] = target: Mitogen-activated protein kinase 11 (Homo sapiens) (UniProt Q15759); details: Compound concentration 100.0 nM
[25] = target: Bone morphogenetic protein receptor type-1A (Homo sapiens) (UniProt P36894); details: Compound concentration 100.0 nM
[26] = target: Receptor tyrosine-protein kinase erbB-2 (Homo sapiens) (UniProt P04626); details: Compound concentration 100.0 nM
[27] = target: Receptor-interacting serine/threonine-protein kinase 4 (Homo sapiens) (UniProt P57078); details: Compound concentration 100.0 nM
[28] = system: Phosphatidylinositol 4,5-bisphosphate 3-kinase catalytic subunit alpha isoform (Homo sapiens), P42336 [M1043I]; details: Compound concentration 100.0 nM
[29] = target: Ribosomal protein S6 kinase alpha-5 (Homo sapiens) (UniProt O75582); details: Compound concentration 100.0 nM
[30] = target: Tyrosine-protein kinase Yes (Homo sapiens) (UniProt P07947); details: Compound concentration 100.0 nM
[31] = target: Phosphatidylinositol 4-phosphate 5-kinase type-1 gamma (Homo sapiens) (UniProt O60331); details: Compound concentration 100.0 nM
[32] = target: T1, Dual specificity mitogen-activated protein kinase kinase 7 (Homo sapiens) (UniProt O14733); details: Compound concentration 100.0 nM
T1 sequence (whole entry): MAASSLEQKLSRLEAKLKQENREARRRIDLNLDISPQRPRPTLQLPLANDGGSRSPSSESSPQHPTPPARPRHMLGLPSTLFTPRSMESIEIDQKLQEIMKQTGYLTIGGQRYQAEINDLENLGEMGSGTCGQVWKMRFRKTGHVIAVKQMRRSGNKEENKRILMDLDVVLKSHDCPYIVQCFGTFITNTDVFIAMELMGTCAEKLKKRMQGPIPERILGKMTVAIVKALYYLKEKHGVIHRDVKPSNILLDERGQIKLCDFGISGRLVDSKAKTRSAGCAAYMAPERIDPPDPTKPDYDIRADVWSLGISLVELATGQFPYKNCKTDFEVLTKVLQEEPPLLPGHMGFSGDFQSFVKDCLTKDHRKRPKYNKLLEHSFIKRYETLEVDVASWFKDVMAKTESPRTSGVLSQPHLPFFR

[33] = target: Tyrosine-protein kinase CSK (Homo sapiens) (UniProt P41240); details: Compound concentration 100.0 nM
[34] = target: Tyrosine-protein kinase Blk (Homo sapiens) (UniProt P51451); details: Compound concentration 100.0 nM
[35] = target: Proto-oncogene tyrosine-protein kinase receptor Ret (Homo sapiens) (UniProt P07949); details: Compound concentration 100.0 nM
[36] = target: Aurora kinase C (Homo sapiens) (UniProt Q9UQB9); details: Compound concentration 100.0 nM
[37] = system: Phosphatidylinositol 4,5-bisphosphate 3-kinase catalytic subunit alpha isoform (Homo sapiens), P42336 [Q546K]; details: Compound concentration 100.0 nM
[38] = target: Eukaryotic translation initiation factor 2-alpha kinase 1 (Homo sapiens) (UniProt Q9BQI3); details: Compound concentration 100.0 nM
[39] = target: RAF proto-oncogene serine/threonine-protein kinase (Homo sapiens) (UniProt P04049); details: Compound concentration 100.0 nM

Eukaryotic translation initiation factor 2-alpha kinase 1 (Homo sapiens), sequence (Q9BQI3 whole entry): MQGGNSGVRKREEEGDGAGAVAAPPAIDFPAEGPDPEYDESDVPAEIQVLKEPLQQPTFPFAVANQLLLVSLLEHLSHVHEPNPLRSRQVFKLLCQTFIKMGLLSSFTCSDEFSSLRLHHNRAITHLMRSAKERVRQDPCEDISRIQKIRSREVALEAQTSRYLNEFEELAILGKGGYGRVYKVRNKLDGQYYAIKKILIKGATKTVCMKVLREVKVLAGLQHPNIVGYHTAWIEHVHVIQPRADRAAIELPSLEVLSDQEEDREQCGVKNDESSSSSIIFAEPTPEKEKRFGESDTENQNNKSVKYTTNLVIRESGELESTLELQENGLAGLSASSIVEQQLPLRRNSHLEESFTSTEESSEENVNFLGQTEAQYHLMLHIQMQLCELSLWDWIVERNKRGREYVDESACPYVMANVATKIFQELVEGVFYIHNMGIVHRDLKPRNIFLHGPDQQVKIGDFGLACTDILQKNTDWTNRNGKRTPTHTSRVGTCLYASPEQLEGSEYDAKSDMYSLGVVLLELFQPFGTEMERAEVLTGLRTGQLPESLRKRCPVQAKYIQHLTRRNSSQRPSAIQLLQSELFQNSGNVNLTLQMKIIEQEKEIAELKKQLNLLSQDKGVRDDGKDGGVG
Phosphatidylinositol 4,5-bisphosphate 3-kinase catalytic subunit alpha isoform (Homo sapiens), P42336 [M1043I], sequence (P42336 whole entry M1043I, canonical isoform): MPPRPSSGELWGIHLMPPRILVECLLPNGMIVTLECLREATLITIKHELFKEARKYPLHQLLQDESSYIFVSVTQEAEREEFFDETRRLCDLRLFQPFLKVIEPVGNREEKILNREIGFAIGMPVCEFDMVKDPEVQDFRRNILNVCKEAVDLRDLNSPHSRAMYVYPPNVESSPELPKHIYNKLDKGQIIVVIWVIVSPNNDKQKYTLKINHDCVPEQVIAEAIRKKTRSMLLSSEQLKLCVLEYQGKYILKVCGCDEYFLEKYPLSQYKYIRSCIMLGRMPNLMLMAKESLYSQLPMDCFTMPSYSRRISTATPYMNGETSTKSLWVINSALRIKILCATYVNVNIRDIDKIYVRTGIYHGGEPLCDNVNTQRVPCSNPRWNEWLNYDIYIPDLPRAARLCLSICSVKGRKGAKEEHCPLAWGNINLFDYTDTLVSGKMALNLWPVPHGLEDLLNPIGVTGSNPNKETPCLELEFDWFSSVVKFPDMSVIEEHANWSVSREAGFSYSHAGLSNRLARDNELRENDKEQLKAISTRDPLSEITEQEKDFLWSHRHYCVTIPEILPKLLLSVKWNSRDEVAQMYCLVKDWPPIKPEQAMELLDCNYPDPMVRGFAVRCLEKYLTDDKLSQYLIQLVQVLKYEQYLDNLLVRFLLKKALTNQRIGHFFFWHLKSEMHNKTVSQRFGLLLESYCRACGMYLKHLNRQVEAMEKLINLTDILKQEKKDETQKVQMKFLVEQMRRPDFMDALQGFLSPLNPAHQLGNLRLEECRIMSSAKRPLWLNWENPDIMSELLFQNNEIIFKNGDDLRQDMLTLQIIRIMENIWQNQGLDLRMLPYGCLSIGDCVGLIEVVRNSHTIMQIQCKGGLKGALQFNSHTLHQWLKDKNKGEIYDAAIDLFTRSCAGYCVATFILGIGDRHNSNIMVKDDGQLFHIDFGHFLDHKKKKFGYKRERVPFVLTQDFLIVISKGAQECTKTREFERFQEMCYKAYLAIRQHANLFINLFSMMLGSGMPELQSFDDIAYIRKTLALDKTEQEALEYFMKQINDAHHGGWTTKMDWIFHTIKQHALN
Ephrin type-B receptor 3 (Homo sapiens), sequence (P54753 whole entry): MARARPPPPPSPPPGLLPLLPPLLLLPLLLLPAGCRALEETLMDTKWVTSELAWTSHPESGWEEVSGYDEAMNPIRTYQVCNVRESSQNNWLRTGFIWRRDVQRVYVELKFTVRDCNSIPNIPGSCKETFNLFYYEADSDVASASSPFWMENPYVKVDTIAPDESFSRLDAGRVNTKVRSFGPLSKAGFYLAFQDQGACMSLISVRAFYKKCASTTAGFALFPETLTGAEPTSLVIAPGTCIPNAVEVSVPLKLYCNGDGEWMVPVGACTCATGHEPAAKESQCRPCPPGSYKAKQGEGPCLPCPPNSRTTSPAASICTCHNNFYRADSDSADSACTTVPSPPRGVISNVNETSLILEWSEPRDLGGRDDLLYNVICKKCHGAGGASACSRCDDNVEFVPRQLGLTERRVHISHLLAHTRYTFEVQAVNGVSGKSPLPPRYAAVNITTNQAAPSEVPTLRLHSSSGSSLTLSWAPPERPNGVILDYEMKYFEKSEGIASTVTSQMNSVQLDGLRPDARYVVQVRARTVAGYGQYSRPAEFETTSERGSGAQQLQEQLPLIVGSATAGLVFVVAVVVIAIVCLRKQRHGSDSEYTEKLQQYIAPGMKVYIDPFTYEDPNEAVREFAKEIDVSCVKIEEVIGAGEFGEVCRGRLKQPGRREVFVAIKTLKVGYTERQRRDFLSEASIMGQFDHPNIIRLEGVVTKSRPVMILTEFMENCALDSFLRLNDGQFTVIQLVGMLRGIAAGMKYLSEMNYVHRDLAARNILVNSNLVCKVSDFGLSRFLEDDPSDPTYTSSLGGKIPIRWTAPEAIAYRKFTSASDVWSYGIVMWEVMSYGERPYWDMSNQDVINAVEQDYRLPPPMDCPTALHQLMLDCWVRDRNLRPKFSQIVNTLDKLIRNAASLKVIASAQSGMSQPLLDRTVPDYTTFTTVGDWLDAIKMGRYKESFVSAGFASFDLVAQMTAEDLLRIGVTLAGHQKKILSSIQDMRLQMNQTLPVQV
Phosphatidylinositol 4,5-bisphosphate 3-kinase catalytic subunit alpha isoform (Homo sapiens), P42336 [Q546K], sequence (P42336 whole entry Q546K, canonical isoform): as the sequence (P42336 whole entry M1043I, canonical isoform) above, with Q546K, I1043M counted along it
LIM domain kinase 2 (Homo sapiens), sequence (P53671 whole entry, looked up, the tested form may be a part): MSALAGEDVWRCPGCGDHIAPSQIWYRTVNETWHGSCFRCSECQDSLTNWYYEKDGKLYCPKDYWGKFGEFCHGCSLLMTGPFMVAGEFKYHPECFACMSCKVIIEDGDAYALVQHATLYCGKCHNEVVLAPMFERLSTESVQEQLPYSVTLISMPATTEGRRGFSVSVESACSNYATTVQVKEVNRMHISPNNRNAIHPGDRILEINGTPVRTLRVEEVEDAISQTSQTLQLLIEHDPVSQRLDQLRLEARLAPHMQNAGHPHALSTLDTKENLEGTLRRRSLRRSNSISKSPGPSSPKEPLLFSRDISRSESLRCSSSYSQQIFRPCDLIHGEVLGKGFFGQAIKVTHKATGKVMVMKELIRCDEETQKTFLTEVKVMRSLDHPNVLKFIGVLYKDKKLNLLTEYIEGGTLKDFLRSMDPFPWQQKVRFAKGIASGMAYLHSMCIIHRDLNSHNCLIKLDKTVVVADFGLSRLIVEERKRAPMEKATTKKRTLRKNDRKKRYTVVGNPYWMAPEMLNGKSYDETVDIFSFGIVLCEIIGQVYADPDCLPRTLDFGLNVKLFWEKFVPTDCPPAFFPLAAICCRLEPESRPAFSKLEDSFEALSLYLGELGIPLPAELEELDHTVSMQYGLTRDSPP
Mitogen-activated protein kinase 11 (Homo sapiens), sequence (Q15759 whole entry): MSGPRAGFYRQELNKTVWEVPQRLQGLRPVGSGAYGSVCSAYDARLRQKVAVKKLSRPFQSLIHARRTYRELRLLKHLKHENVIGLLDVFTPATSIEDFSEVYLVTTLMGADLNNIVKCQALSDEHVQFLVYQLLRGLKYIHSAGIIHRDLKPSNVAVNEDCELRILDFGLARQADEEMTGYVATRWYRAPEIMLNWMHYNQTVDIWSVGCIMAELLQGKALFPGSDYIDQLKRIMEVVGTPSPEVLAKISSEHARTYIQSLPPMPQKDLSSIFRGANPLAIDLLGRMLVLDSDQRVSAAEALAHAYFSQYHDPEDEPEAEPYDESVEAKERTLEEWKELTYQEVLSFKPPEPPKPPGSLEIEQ
Aurora kinase C (Homo sapiens), sequence (Q9UQB9 whole entry, canonical isoform): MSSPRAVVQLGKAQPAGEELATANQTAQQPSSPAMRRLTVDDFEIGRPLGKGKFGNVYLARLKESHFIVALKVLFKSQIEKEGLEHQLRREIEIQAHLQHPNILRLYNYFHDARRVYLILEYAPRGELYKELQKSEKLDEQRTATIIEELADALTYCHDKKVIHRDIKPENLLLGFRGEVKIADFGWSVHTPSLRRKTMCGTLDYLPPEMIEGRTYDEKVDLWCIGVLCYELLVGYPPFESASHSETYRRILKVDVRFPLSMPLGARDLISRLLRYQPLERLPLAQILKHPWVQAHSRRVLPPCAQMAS

| Compound | residual activity [1] [%] | residual activity [2] [%] | residual activity [3] [%] | residual activity [4] [%] | residual activity [5] [%] | residual activity [6] [%] | residual activity [7] [%] | residual activity [8] [%] | residual activity [9] [%] | residual activity [10] [%] | inhibition [11] [%] | inhibition [12] [%] | residual activity [13] [%] | residual activity [14] [%] | residual activity [15] [%] | residual activity [16] [%] | residual activity [17] [%] | residual activity [18] [%] | residual activity [19] [%] | residual activity [20] [%] | also measured |
| --- | --- | --- | --- | --- | --- | --- | --- | --- | --- | --- | --- | --- | --- | --- | --- | --- | --- | --- | --- | --- | --- |
| Cc1c[nH]c2nccc(Oc3c(F)cc(Nc4cc(Cl)nc(N)n4)cc3F)c12 [BAY-549] | 99 | 87 | 97 | 70 | 96 | 75 | 79 | 96 | 100 | 80 | -0.03 | 7.41 | 100 | 81 | 95 | 94 | 0.6 | 81 | 85 | 100 | residual activity [21]: 72%; residual activity [22]: 100%; residual activity [23]: 81%; residual activity [24]: 97%; residual activity [25]: 85%; residual activity [26]: 99%; residual activity [27]: 84%; residual activity [28]: 66%; residual activity [29]: 93%; residual activity [30]: 96%; residual activity [31]: 78%; residual activity [32]: 67%; residual activity [33]: 87%; residual activity [34]: 90%; residual activity [35]: 97%; residual activity [36]: 72%; residual activity [37]: 76%; residual activity [38]: 77%; residual activity [39]: 75% |
| Cn1cc(Cl)c2c(Oc3c(F)cc(Nc4cc(Cl)nc(N)n4)cc3F)ccnc21 [BAY-4900] | 100 | 100 | 100 | 63 | 100 | 93 | 100 | 100 | 100 | 88 | -9.98 | 0.85 | 100 | 95 | 79 | 100 | 76 | 93 | 78 | 100 | residual activity [21]: 100%; residual activity [22]: 100%; residual activity [23]: 93%; residual activity [24]: 100%; residual activity [25]: 95%; residual activity [26]: 95%; residual activity [27]: 100%; residual activity [28]: 64%; residual activity [29]: 100%; residual activity [30]: 93%; residual activity [31]: 93%; residual activity [32]: 84%; residual activity [33]: 100%; residual activity [34]: 96%; residual activity [35]: 99%; residual activity [36]: 97%; residual activity [37]: 76%; residual activity [38]: 100%; residual activity [39]: 91% |
